The target in test [1] is T1, neuronal isoform of nitric oxide synthetase (Rattus norvegicus, UniProt P29476).
T1 construct: Enzyme was isolated from rat hippocampus or cerebellum; from tissue; host or cells: hippocampus or cerebellum of male Sprague-Dawley rat (20,000 g supernatant)
Nature of the test: biochemical. As to conditions: enzyme from rat hippocampus or cerebellum; 22° C., 10 minutes; read-out: IC50 in the screen for activity against the neuronal isoform of nitric oxide synthetase.
Method: 1) Screen for Neuronal Nitric Oxide Synthase Inhibition Activity
Enzyme was isolated from rat hippocampus or cerebellum. The cerebellum or hippocampus of a male Sprague-Dawley rat (250-275g) is removed following CO2 anaesthesia of the animal and decapitation. Cerebellar or hippocampal supernatant is prepared by homogenisation in 50 mM Tris-HCl with 1 mM EDTA buffer (pH 7.2 at 25° C.) and centifugation for 15 minutes at 20,000 g. Residual L-arginine is removed from the supernatant by chromatography through Dowex AG-50W-X8 sodium form and hydrogen form columns successively, and further centrifugation at 1000 g for 30 seconds.
For the assay, 25 μl of the final supernatant is added to each of 12 test tubes containing 25 μl L-arginine solution (of concentration 18 μM ^1 H-L-arginine, 96 nM ^3 H-L-arginine) and either 25 μl of an assay buffer (50 mM HEPES, 1 mM EDTA, 1.5 mM CaCl2, pH 7.4) or 25 μl of test compound in the buffer at 22° C. […]
Labelled L-citrulline is separated from labelled L-arginine by chromatography over a Dowex AG-50W-X8 200-400 mesh column. […] The L-citrulline is then quantified by scintillation counting. […]

In test [2] the target is T2, macrophage isoform of nitric oxide synthetase (Mus musculus, UniProt P29477).
T2 construct: endogenous in cells; host or cells: murine macrophage cell line J774A-1 (from laboratories of the Imperial Cancer Research Fund), induced with LPS and IFN-gamma
Nature of the test: Screen for Macrophage Nitric Oxide Synthase Inhibition Activity. In kind it is biochemical. Conditions: lysate of induced murine J774A-1 cells; 1 hour at room temperature; read-out: IC50 in the screen for activity against the macrophage isoform of nitric oxide synthetase. From the text:
The enzyme nitric oxide synthetase has a number of isoforms and compounds of formula I, or a pharmaceutically acceptable salt thereof, may be screened for nitric oxide synthetase inhibition activity by procedures based on those of Bredt and Snyder in Proc. Natl. Acad. Sci. (1990) 87, 682-685 and Forstermann et. al. (1992) Eur. J. Pharm. 225, 161-165. Nitric oxide synthetase converts ^3 H-L-arginine to ^3 H-L-citrulline which can be separated by cation exchange chromatography and quantified by liquid scintillation counting.
(2) Screen for Macrophage Nitric Oxide Synthase Inhibition Activity
Enzyme is prepared, after induction, from the cultured murine macrophage cell line J774A-1 (obtained from laboratories of the Imperial Cancer Research Fund). J774A-1 cells are cultured in Dulbecco's Modified Eagles Medium (DMEM) supplemented with 10% foetal bovine serum, 4 mM L-glutamine and antibiotics (100 units/ml penicillin G, 100 μg/ml streptomycin & 0.25 μg/ml amphotericin B). Cells are routinely grown in […] flasks containing 35 ml medium kept at 37° C. and in a humidified atmosphere containing 5% CO2.
Nitric oxide synthase is produced by cells in response to inferferon-γ(IFNγ) and lipopolysaccharide (LPS). […]
Labelled L-citrulline is separated from labelled L-arginine using Dowex AG-50W. […] After allowing the samples to dry the L-citrulline is quantified by scintillation counting. […]

Test [3] concerns the target T3, endothelial isoform of nitric oxide synthetase (Homo sapiens, UniProt P29474).
T3 construct: Enzyme may be isolated from human umbilical vein endothelial cells (HUVECs); host or cells: human umbilical vein endothelial cells (HUVECs), CHAPS-solubilised particulate fraction
Nature of the test: Screen for Endothelial Nitric Oxide Synthase Inhibition Activity. The class given is biochemical.
Method: 3) Screen for Endothelial Nitric Oxide Synthase Inhibition Activity
HUVECs were purchased from Clonetics Corp (San Diego, Calif., USA) and cultured to confluency. Cells can be maintained to passage 35-40 without significant loss of yield of nitric oxide synthase. When cells reach confluency, they are resuspended in Dulbecco's phosphate buffered saline, centrifuged at 800 rpm for 10 mins, the cell pellet homogenised in ice-cold 50 mM Tris-HCl, 1 mM EDTA, 10% glycerol, 1 mM phenylmethylsulphonylfluoride, 2 μM leupeptin at pH 4.2. Following centrifugation at 34,000 rpm for 60 mins, the pellet is solubilised in the homogenisation buffer which also contains 20 mM CHAPS. After a 30 min incubation on ice, the suspension is centrifuged at 34,000 rpm for 30 mins. The resulting supernatant is stored at -80° C. until use. […]
Labelled L-citrulline is separated from labelled L-arginine by chromatography over a Dowex AG-50W-X8 200-400 mesh column. […] The L-citruiline is then quantified by scintillation counting. […]

Counter-ions that a name gives are not always drawn.

What is called IC50 is the concentration that inhibits the measured activity by half. A word on the inhibition: it is the change of the read-out against control, counted positive when it falls. Higher therefore signals a strong effect.

T3 sequence (P29474 2-1203): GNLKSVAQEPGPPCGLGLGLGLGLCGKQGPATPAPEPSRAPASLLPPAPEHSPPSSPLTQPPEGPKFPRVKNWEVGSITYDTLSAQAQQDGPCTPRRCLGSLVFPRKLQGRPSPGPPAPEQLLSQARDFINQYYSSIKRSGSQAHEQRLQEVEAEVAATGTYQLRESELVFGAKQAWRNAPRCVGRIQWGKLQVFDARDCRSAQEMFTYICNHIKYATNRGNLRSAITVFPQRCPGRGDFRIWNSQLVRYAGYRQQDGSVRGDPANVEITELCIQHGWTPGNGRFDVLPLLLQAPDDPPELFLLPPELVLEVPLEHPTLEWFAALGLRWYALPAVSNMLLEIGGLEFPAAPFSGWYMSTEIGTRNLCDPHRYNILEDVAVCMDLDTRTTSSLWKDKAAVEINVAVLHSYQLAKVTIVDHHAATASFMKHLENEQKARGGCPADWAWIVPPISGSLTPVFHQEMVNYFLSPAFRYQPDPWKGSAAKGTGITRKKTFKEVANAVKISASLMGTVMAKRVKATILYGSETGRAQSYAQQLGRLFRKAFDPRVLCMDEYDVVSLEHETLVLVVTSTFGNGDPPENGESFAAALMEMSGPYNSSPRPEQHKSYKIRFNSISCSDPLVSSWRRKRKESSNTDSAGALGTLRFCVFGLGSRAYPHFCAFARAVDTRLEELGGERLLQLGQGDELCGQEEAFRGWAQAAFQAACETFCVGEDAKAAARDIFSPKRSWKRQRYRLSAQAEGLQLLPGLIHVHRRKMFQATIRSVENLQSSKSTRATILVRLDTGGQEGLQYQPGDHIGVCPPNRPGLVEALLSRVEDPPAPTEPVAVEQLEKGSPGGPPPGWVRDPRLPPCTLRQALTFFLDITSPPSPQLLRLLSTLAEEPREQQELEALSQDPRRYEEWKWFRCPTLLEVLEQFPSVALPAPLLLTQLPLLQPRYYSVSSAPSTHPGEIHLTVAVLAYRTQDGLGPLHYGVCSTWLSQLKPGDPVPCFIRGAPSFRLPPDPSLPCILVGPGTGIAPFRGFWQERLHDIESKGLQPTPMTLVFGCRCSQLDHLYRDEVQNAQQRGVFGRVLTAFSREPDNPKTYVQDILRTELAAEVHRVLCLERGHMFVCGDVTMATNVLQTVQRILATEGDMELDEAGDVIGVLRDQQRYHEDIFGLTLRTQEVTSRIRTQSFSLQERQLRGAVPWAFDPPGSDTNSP
T1 sequence (P29476 whole entry, canonical isoform): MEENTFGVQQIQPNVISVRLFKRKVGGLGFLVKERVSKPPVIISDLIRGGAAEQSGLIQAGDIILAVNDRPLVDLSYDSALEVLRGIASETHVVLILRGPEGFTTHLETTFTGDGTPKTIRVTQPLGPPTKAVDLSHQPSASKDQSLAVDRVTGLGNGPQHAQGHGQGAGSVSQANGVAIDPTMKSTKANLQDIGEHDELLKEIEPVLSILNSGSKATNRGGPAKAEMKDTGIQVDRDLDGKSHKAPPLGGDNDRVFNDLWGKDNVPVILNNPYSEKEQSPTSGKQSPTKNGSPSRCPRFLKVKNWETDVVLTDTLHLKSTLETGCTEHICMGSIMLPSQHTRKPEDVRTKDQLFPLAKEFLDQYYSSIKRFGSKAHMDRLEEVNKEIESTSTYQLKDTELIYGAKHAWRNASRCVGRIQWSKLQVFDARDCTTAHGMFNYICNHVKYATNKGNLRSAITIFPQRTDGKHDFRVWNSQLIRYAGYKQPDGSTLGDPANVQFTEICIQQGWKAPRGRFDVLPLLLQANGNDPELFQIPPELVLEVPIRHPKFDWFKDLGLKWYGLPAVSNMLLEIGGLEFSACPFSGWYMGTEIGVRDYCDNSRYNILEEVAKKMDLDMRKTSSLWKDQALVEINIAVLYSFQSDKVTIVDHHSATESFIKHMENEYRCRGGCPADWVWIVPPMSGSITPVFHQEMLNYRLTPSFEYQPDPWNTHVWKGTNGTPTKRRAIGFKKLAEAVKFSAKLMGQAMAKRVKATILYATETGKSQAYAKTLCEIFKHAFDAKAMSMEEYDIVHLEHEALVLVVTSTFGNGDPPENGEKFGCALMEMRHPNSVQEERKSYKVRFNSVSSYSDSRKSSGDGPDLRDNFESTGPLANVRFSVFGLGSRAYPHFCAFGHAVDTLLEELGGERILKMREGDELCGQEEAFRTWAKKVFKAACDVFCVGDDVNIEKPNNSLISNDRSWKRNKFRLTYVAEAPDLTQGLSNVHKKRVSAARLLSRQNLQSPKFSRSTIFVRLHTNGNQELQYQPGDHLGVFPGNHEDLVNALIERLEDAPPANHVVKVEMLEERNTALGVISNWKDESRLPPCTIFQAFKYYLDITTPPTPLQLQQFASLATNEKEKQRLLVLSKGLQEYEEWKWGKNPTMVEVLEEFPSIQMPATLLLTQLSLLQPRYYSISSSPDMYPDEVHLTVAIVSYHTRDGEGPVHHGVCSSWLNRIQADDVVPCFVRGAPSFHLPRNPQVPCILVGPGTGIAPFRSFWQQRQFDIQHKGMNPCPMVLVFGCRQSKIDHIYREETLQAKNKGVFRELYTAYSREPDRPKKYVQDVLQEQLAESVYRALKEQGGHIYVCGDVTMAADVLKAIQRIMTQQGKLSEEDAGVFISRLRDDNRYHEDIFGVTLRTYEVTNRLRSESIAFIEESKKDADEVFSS

For the compound `CC(=O)Nc1cccc(NC(=N)N2CCCC2)c1` [Example 1, N-(3-((methylcarbonyl)amino)phenyl)-1-pyrrolidinecarboximidamide monohydrochloride], the 50% inhibitory concentration (IC50) was under 10 µM in test [1]; over 100 µM in test [2]; over 100 µM in test [3] (enzyme from HUVECs, 22° C., 10 minutes, read-out: IC50 in the screen for activity against the endothelial isoform of nitric oxide synthetase).
`N=C(NCCC[C@H](N)C(=O)O)N[N+](=O)[O-]` [N-nitro-L-arginine, reference compound]: the inhibition at 1 µM in test [3] (at a concentration of 1 μM, reference standard) was in the range of 70 to 90%.

The record behind these values is patent publication US5885985A, “Guanidine derivatives useful in therapy” (priority 1993, dated 1999).
